Experimental data as given in patent US20230192661A1, “1, 4, 5, 6-TETRAHYDROPYRIMIDINE-2-AMINE DERIVATIVE” (UBE Corporation, priority 2020, published 2023).

Tested on: Human hepatic stellate cells
Experiment: Active human hepatic stellate cell dedifferentiation test (decrease in ACTA2 mRNA expression)
Format: cell-based
Settings: 3 days differentiation then 2 days with compound, read-out: IC50 (rate of decrease in ACTA2 mRNA expression)
Procedure: Human hepatic stellate cells (manufactured by ScienCell Research Laboratories, Inc., 5300) were suspended in DMEM containing 10% FBS and […] penicillin/streptomycin/amphotericin B to prepare a cell suspension of 0.5×10^5 cells/mL, which was regarded as cells at the start of differentiation. The cells at the start of differentiation were dispensed at 1 mL/well to a 12-well plate and cultured, for differentiation, for 3 days in a 5% CO2 incubator (37° C.).
The culture solution in each well was removed, and DMEM containing 10% FBS and 1% penicillin/streptomycin/amphotericin B supplemented with a test compound dissolved in DMSO (final DMSO concentration: 0.1%) was added at 1 mL/well. The resultant was further cultured for 2 days in a 5% CO2 incubator (37° C.). In Test Example 4, the same reagents as in Test Example 1 were used unless otherwise specified.
RNA in the cultured cells was extracted using NucleoSpin® RNA (manufactured by Takara Bio Inc., U0955C), and cDNA was further synthesized from the extracted RNA using Prime Script™ RT reagent Kit with gDNA Eraser (manufactured by Takara Bio Inc., RR047A). Real time PCR was performed using the synthesized cDNA, various primers and TB Green® Premix Ex Taq™ II (manufactured by Takara Bio Inc., RR820A) and using PCR Thermal Cycler Dice Real Time (manufactured by Takara Bio Inc., System Code TP910, Model Code TP900). The primers used were actin alpha 2, smooth muscle (ACTA2) primer (manufactured by Takara Bio Inc., HA136273) and glyceraldehyde-3-phosphate dehydrogenase (GAPDH) primer (manufactured by Takara Bio Inc., HA067812).
The amplification curve of PCR was analyzed by the comparative Ct method. The expression level of ACTA2 mRNA was corrected with the expression level of GAPDH mRNA. An ACTA2 mRNA expression level when DMSO was added instead of the test compound was defined as 100%, and an ACTA2 mRNA expression level in the cells at the start of differentiation was defined as 0%. The rate of decrease in ACTA2 mRNA expression by the test compound was calculated according to the following expression.
Rate of decrease in ACTA2 mRNA expression (%)=[1−{(ACTA2 mRNA expression level in the case of adding the test compound)−(ACTA2 mRNA expression level in the cells at the start of differentiation)}/{(ACTA2 mRNA expression level in the case of adding DMSO)−(ACTA2 mRNA expression level in the cells at the start of differentiation)}]×100
An IC50 value was calculated from the rate of decrease in ACTA2 mRNA expression by the test compound. A: IC50<10 nM, B: 10 nM≤IC50<50 nM, C: 50 nM≤IC50<100 nM, or D: IC50≥100 nM.

Structure (SMILES) | IC50
O=C(O)C[C@H](NC(=O)CNC(=O)c1cc(NC2=NCC(F)CN2)c2cn[nH]c2c1)c1cc(Cl)cc(C(F)(F)F)c1 (stereo partly drawn) [Example 1-(b), (3S)-3-(3-chloro-5-(trifluoromethyl)phenyl)-3-(2-(4-((5-fluoro-1,4,5,6-tetrahydropyrimidin-2-yl)amino)-1H-indazole-6-carboxamido)acetamido)propanoic acid] | < 10 nM
O=C(O)C[C@H](NC(=O)CNC(=O)c1cc(NC2=NCC(F)CN2)c2cn[nH]c2c1)c1cc(Br)cc(C(F)(F)F)c1 (stereo partly drawn) [Example 2-(b), (3S)-3-(3-bromo-5-(trifluoromethyl)phenyl)-3-(2-(4-((5-fluoro-1,4,5,6-tetrahydropyrimidin-2-yl)amino)-1H-indazole-6-carboxamido)acetamido)propanoic acid] | 10 to 50 nM
O=C(O)C[C@H](NC(=O)CNC(=O)c1cc(NC2=NCC(F)CN2)c2cn[nH]c2c1)c1cc(I)cc(C(F)(F)F)c1 (stereo partly drawn) [Example 3-(b), (3S)-3-(2-(4-((5-fluoro-1,4,5,6-tetrahydropyrimidin-2-yl)amino)-1H-indazole-6-carboxamido)acetamido)-3-(3-iodo-5-(trifluoromethyl)phenyl)propanoic acid] | 10 to 50 nM
Cc1cc([C@H](CC(=O)O)NC(=O)CNC(=O)c2cc(NC3=NCC(F)CN3)c3cn[nH]c3c2)cc(C(F)(F)F)c1 (stereo partly drawn) [Example 4-(b), (3S)-3-(2-(4-((5-fluoro-1,4,5,6-tetrahydropyrimidin-2-yl)amino)-1H-indazole-6-carboxamido)acetamido)-3-(3-methyl-5-(trifluoromethyl)phenyl)propanoic acid] | 10 to 50 nM
COc1cc([C@H](CC(=O)O)NC(=O)CNC(=O)c2cc(NC3=NCC(F)CN3)c3cn[nH]c3c2)cc(C(F)(F)F)c1 (stereo partly drawn) [Example 5-(b), (3S)-3-(2-(4-((5-fluoro-1,4,5,6-tetrahydropyrimidin-2-yl)amino)-1H-indazole-6-carboxamido)acetamido)-3-(3-methoxy-5-(trifluoromethyl)phenyl)propanoic acid] | < 10 nM
O=C(O)C[C@H](NC(=O)CNC(=O)c1cc(NC2=NCC(F)CN2)c2cn[nH]c2c1)c1cc(F)cc(C(F)(F)F)c1 (stereo partly drawn) [Example 6-(b), (3S)-3-(2-(4-((5-fluoro-1,4,5,6-tetrahydropyrimidin-2-yl)amino)-1H-indazole-6-carboxamido)acetamido)-3-(3-fluoro-5-(trifluoromethyl)phenyl)propanoic acid] | 10 to 50 nM
O=C(O)C[C@H](NC(=O)CNC(=O)c1cc(NC2=NCC(F)CN2)c2cn[nH]c2c1)c1cc(C(F)(F)F)cc(C(F)(F)F)c1 (stereo partly drawn) [Example 7-(b), (3S)-3-(3,5-bis(trifluoromethyl)phenyl)-3-(2-(4-((5-fluoro-1,4,5,6-tetrahydropyrimidin-2-yl)amino)-1H-indazole-6-carboxamido)acetamido)propanoic acid] | < 10 nM
O=C(O)C[C@H](NC(=O)CNC(=O)c1cc(NC2=NCC(F)CN2)c2cn[nH]c2c1)c1cc(-n2cccn2)cc(C(F)(F)F)c1 (stereo partly drawn) [Example 8-(b), (3S)-3-(3-(1H-pyrazol-1-yl)-5-(trifluoromethyl)phenyl)-3-(2-(4-((5-fluoro-1,4,5,6-tetrahydropyrimidin-2-yl)amino)-1H-indazole-6-carboxamido)acetamido)propanoic acid] | 50 to 100 nM
O=C(O)C[C@H](NC(=O)CNC(=O)c1cc(NC2=NCC(F)CN2)c2cn[nH]c2c1)c1cccc(C(F)(F)F)c1F (stereo partly drawn) [Example 9-(b), (3S)-3-(2-(4-((5-fluoro-1,4,5,6-tetrahydropyrimidin-2-yl)amino)-1H-indazole-6-carboxamido)acetamido)-3-(2-fluoro-3-(trifluoromethyl)phenyl)propanoic acid] | 10 to 50 nM
O=C(O)C[C@H](NC(=O)CNC(=O)c1cc(NC2=NCC(F)CN2)c2cn[nH]c2c1)c1cccc(C(F)(F)F)c1Cl (stereo partly drawn) [Example 10-(b), (3S)-3-(2-chloro-3-(trifluoromethyl)phenyl)-3-(2-(4-((5-fluoro-1,4,5,6-tetrahydropyrimidin-2-yl)amino)-1H-indazole-6-carboxamido)acetamido)propanoic acid] | ≥ 100 nM
O=C(O)C[C@H](NC(=O)CNC(=O)c1cc(NC2=NCC(F)CN2)c2cn[nH]c2c1)c1cc(C(F)(F)F)ccc1F (stereo partly drawn) [Example 11-(b), (3S)-3-(2-(4-((5-fluoro-1,4,5,6-tetrahydropyrimidin-2-yl)amino)-1H-indazole-6-carboxamido)acetamido)-3-(2-fluoro-5-(trifluoromethyl)phenyl)propanoic acid] | < 10 nM
O=C(O)C[C@H](NC(=O)CNC(=O)c1cc(NC2=NCC(F)CN2)c2cn[nH]c2c1)c1cc(C(F)(F)F)ccc1Cl (stereo partly drawn) [Example 12-(b), (3S)-3-(2-chloro-5-(trifluoromethyl)phenyl)-3-(2-(4-((5-fluoro-1,4,5,6-tetrahydropyrimidin-2-yl)amino)-1H-indazole-6-carboxamido)acetamido)propanoic acid] | 10 to 50 nM
O=C(O)C[C@H](NC(=O)CNC(=O)c1cc(NC2=NCC(F)CN2)c2cn[nH]c2c1)c1ccc(F)c(C(F)(F)F)c1 (stereo partly drawn) [Example 13-(b), (3S)-3-(2-(4-((5-fluoro-1,4,5,6-tetrahydropyrimidin-2-yl)amino)-1H-indazole-6-carboxamido)acetamido)-3-(4-fluoro-3-(trifluoromethyl)phenyl)propanoic acid] | 10 to 50 nM
Cc1ccc([C@H](CC(=O)O)NC(=O)CNC(=O)c2cc(NC3=NCC(F)CN3)c3cn[nH]c3c2)cc1C(F)(F)F (stereo partly drawn) [Example 14-(b), (3S)-3-(2-(4-((5-fluoro-1,4,5,6-tetrahydropyrimidin-2-yl)amino)-1H-indazole-6-carboxamido)acetamido)-3-(4-methyl-3-(trifluoromethyl)phenyl)propanoic acid] | < 10 nM
O=C(O)C[C@H](NC(=O)CNC(=O)c1cc(NC2=NCC(F)CN2)c2cn[nH]c2c1)c1cc(Cl)c(F)c(C(F)(F)F)c1 (stereo partly drawn) [Example 15-(b), (3S)-3-(3-chloro-4-fluoro-5-(trifluoromethyl)phenyl)-3-(2-(4-((5-fluoro-1,4,5,6-tetrahydropyrimidin-2-yl)amino)-1H-indazole-6-carboxamido)acetamido)propanoic acid] | < 10 nM
COc1ccc([C@H](CC(=O)O)NC(=O)CNC(=O)c2cc(NC3=NCC(F)CN3)c3cn[nH]c3c2)cc1Br (stereo partly drawn) [Example 16-(b), (3S)-3-(3-bromo-4-methoxyphenyl)-3-(2-(4-((5-fluoro-1,4,5,6-tetrahydropyrimidin-2-yl)amino)-1H-indazole-6-carboxamido)acetamido)propanoic acid] | < 10 nM
O=C(O)C[C@H](NC(=O)CNC(=O)c1cc(NC2=NCC(F)CN2)c2cn[nH]c2c1)c1cc(Cl)cc(Cl)c1 (stereo partly drawn) [Example 17-(b), (3S)-3-(3,5-dichlorophenyl)-3-(2-(4-((5-fluoro-1,4,5,6-tetrahydropyrimidin-2-yl)amino)-1H-indazole-6-carboxamido)acetamido)propanoic acid] | 10 to 50 nM
O=C(O)C[C@H](NC(=O)CNC(=O)c1cc(NC2=NCC(F)CN2)c2cn[nH]c2c1)c1cc(Cl)cc(Br)c1 (stereo partly drawn) [Example 18-(b), (3S)-3-(3-bromo-5-chlorophenyl)-3-(2-(4-((5-fluoro-1,4,5,6-tetrahydropyrimidin-2-yl)amino)-1H-indazole-6-carboxamido)acetamido)propanoic acid] | < 10 nM
O=C(O)C[C@H](NC(=O)CNC(=O)c1cc(NC2=NCC(F)CN2)c2cn[nH]c2c1)c1cc(Br)cc(Br)c1 (stereo partly drawn) [Example 19-(b), (3S)-3-(3,5-dibromophenyl)-3-(2-(4-((5-fluoro-1,4,5,6-tetrahydropyrimidin-2-yl)amino)-1H-indazole-6-carboxamido)acetamido)propanoic acid] | < 10 nM
O=C(O)C[C@H](NC(=O)CNC(=O)c1cc(NC2=NCC(F)CN2)c2cn[nH]c2c1)c1cc(Br)cc(I)c1 (stereo partly drawn) [Example 20-(b), (3S)-3-(3-bromo-5-iodophenyl)-3-(2-(4-((5-fluoro-1,4,5,6-tetrahydropyrimidin-2-yl)amino)-1H-indazole-6-carboxamido)acetamido)propanoic acid] | < 10 nM
O=C(O)C[C@H](NC(=O)CNC(=O)c1cc(NC2=NCC(F)CN2)c2cn[nH]c2c1)c1cc(Cl)cc(I)c1 (stereo partly drawn) [Example 21-(b), (3S)-3-(3-chloro-5-iodophenyl)-3-(2-(4-((5-fluoro-1,4,5,6-tetrahydropyrimidin-2-yl)amino)-1H-indazole-6-carboxamido)acetamido)propanoic acid] | 10 to 50 nM
